Reference: patent publication US10047089B2, “Dihydro-6-azaphenalene derivatives for the treatment of CNS, oncological diseases and related disorders” (Collaborative Medicinal Development, LLC, priority 2012, dated 2018)

Legend:
[1] = target: T1, zinc induced Aß aggregates (Homo sapiens, UniProt P05067); assay: Bis-ANS fluorescence assay: reversal (disaggregation) of zinc induced Aß aggregates; format: biochemical; conditions: bisANS assay, zinc induced aggregates (FIG. 1, solid arrow)
T1 construct: Effect of bis-ANS on Aβ1-42 Solubility and Precipitation by Zn^2+
T1 sequence (P05067 672-713): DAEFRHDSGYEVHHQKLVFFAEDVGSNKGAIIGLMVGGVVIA
Source text: (§1) Measurement of inhibition or reversal of protein aggregation may be carried out using such assays as Bis-ANS Fluorescence as described in, for example, W. T. Chen et al., J. Biol. Chem, 2011, 286 (11), 9646, or thioflavin T assay as disclosed herein. FIG. 1 depicts the measurement of aggregation prevention by added zinc and disaggregation of zinc induced aggregates by AC047 in a bisANS assay. In the presence of soluble Aß, zinc induces aggregation within milliseconds. This aggregation is detected by an increase in bisANS fluorescence. An excess of EDTA serves as a control by binding zinc and preventing aggregation. Both prevention of aggregation and disaggregation can be detected in the assay. […] The compounds described above were evaluated for the inhibition and reversal of protein aggregation as carried out using such assays as Bis-ANS Fluorescence as described in, for example, J. Biol. Chem, 2011, 286 (11), 9646. All compounds prepared above were measured to show EC50 between 0.000001 to 0.10 mM in both assays in the presence of Zinc (II). Aβ1-42 (25 μM) in Tris-HCl buffer (50 mM, pH7.4) was incubated at RT for 10 min in the presence or absence of ZnCl2 (25 μM) and bis-ANS (50 μM). […] A sample of the supernatant was then collected and compared by dot blot for peptide content to the sample of starting material to quantify how much original peptide had been lost due to precipitation.

Aß = target: T2, Aß (Homo sapiens, UniProt P05067); assay: Bis-ANS fluorescence assay: inhibition (prevention) of zinc induced Aß aggregation; format: biochemical; conditions: bisANS assay, soluble Aß plus added zinc (FIG. 1, dotted arrow)
T2 construct: Effect of bis-ANS on Aβ1-42 Solubility and Precipitation by Zn^2+
T2 sequence (P05067 672-713): as above
Source text: as §1

elimination of zinc induced Aß aggregates (disaggregation) [1]: can eliminate zinc induced Aß aggregates | prevention of zinc induced aggregation (Aß): can prevent zinc induced aggregation
Compound: O=C1c2ccnc3c(O)ccc(c23)C(=O)N1Cc1ccccc1 [AC047, 5-benzyl-9-hydroxy-4H-benzo[de][2,6]naphthyridine-4,6(5H)-dione]
